{"source": "patent US20100135905A1", "about": "“ASSESSMENT OF CANCER SUSCEPTIBILITY TO MOLECULAR TARGETED THERAPY BY USE OF RECOMBINANT PEPTIDES” (priority 2004, published 2010)", "key": {"[1]": {"system": "B16F0 melanoma, lung carcinoma and glioma tumor models", "assay": "Binding of phage-encoded peptides in additional tumor models", "assay_type": "in vivo", "settings": "phage encoding the peptide", "description": "The binding properties of phage encoding HVGGSSV (SEQ ID NO: 1), […] (SEQ ID NO: 2), […] (SEQ ID NO: 3), and SVGSRV (SEQ ID NO: 4) were additionally characterized in a B16F0 melanoma model."}, "[2]": {"system": "treated tumors", "assay": "Kinetics of Cy 7 conjugated peptide binding to treated tumors, daily imaging", "assay_type": "in vivo, mouse", "settings": "Cy 7 conjugate", "description": "To study the kinetics of peptide binding to treated tumors, animals were imaged daily following administration of Cy 7 conjugated HVGGSSV (SEQ ID NO: 1) peptide. […] At 40 hours, the peptide was excreted by the kidneys. Tumors were located in the left hind limb."}, "[3]": {"system": "D54 and LLC tumors", "assay": "Imaging of Alexfluor 750-conjugated peptide in responding and non-responding tumors", "assay_type": "in vivo, nude mice", "description": "D54 and LLC tumors were implanted into both hind limbs of nude mice as described in Example 2. Tumors were grown over the course of seven to 10 days.\nAt 24 hours following drug administration, mice were injected with Alexfluor 750-conjugated HVGGSSV (SEQ ID NO: 1) peptide through a jugular catheter."}, "[4]": {"system": "LLC tumors", "assay": "In vivo panning of T7 phage peptide library: phage recovered from irradiated LLC tumors", "set-up": "species or system mice", "description": "(§1) GL261 murine glioma cells and Lewis lung carcinoma (LLC) cells were implanted into the hind limb of C57BL/6 mice (see Hallahan et al., 1995b; Hallahan et al., 1998; Hallahan & Virudachalam, 1999).\n(§2) For in vivo panning, tumors were irradiated with 3 Gy and approximately 10^10 phage (prepared as described in Example 1) were administered by tail vein injection into each of the tumor bearing mice at 4 hours following irradiation. Tumors were recovered at one hour following injection and amplified in BL21 bacteria. Amplified phage were pooled and re-administered to a tumor-bearing mouse following tumor irradiation. The phage pool was sequentially administered to a total of 6 animals. As a control, wild type phage lacking synthetic peptide inserts were identically administered to a second experimental group of animals.\n(§3) To determine the titer of phage binding in a tumor or in normal tissue, recovered phage were amplified in BL21 bacteria. Bacteria were plated and the number of plaques present was counted. To determine the total phage output per organ, the number of plaque forming units (PFU) on each plate was divided by the volume of phage plated and the weight of each organ. Normal variation was observed as a 2-fold difference in PFU. In the present Example, background binding within tumor blood vessels was approximately 10^4 phage. Phage that bound to the vasculature within irradiated tumors show enrichment in the tumor relative to other organs and enrichment in the irradiated tumor relative to the control phage without DNA insert.\n(§4) Following six rounds of in vivo panning, fifty recombinant phage peptides that bound within irradiated tumors were randomly selected for further analysis. The nucleic acid sequence encoding recombinant phage was amplified by PCR using primers set forth as SEQ ID NOs: 20-21 (available from Novagen Brand, a unit of EMD Biosciences, Inc., Madison, Wis.). An individual phage suspension was used as template. Amplified peptides were sequenced using an ABI PRISM® 377 sequencer (Applied Biosystems of Foster City, Calif., United States of America)."}, "[5]": {"system": "GL261 tumors", "assay": "In vivo panning of T7 phage peptide library: phage recovered from irradiated GL261 tumors", "set-up": "species or system mice", "settings": "Experiment A, 3 Gy; for Phage Recovered from GL261 tumors: number of sequenced phage after six rounds; for Phage Recovered from GL261 tumors (Frequency): six rounds", "description": "as §1, §2, §3, §4"}, "[6]": {"system": "tumor vascular endothelium", "assay": "Histochemistry of tumor sections after biotinylated peptide", "assay_type": "in vivo", "settings": "24 hours after administration", "description": "To determine whether peptide binds to endothelium or blood components, tumors were sectioned at 24 hours following administration of biotinylated HVGGSSV (SEQ ID NO: 1) peptide. Tumor sections were then stained with strepavidin conjugates for histochemistry."}, "[7]": {"system": "responding tumor", "assay": "Near infrared imaging of Cy7-labeled phage peptide in tumor-bearing mice", "assay_type": "in vivo, mouse", "description": "To determine the feasibility of imaging phage peptides binding within tumors, a Xenogen imaging system (Xenogen Corp., Alameda, Calif., United States of America) and near infrared imaging of Cy7-labeled recombinant peptides selected from phage libraries was employed. In order to examine the binding of recombinant phage peptides to responding tumors, preliminary experiments were performed to test the background binding of negative control phage in tumor-bearing animals. The […] was labeled with Cy7 and injected by tail vein into a mouse bearing tumors in both hind limbs. […] The time course of labeled negative control phage circulating throughout the animal over 6 hours was determined. At 1 hour post-injection via the tail vein, Cy7-labeled phage was distributed throughout the entire animal. At 6 hours after tail vein injection, clearance through the kidneys was observed."}, "[8]": {"molecular_target": "T1, α2bβ3 receptor (Mus musculus, UniProt O54890+Q9QUM0)", "T1 construct": "from tissue; host or cells: irradiated tumours (tumour vasculature / blood components) in living mice", "T1 sequence (Q9QUM0 32-1033)": "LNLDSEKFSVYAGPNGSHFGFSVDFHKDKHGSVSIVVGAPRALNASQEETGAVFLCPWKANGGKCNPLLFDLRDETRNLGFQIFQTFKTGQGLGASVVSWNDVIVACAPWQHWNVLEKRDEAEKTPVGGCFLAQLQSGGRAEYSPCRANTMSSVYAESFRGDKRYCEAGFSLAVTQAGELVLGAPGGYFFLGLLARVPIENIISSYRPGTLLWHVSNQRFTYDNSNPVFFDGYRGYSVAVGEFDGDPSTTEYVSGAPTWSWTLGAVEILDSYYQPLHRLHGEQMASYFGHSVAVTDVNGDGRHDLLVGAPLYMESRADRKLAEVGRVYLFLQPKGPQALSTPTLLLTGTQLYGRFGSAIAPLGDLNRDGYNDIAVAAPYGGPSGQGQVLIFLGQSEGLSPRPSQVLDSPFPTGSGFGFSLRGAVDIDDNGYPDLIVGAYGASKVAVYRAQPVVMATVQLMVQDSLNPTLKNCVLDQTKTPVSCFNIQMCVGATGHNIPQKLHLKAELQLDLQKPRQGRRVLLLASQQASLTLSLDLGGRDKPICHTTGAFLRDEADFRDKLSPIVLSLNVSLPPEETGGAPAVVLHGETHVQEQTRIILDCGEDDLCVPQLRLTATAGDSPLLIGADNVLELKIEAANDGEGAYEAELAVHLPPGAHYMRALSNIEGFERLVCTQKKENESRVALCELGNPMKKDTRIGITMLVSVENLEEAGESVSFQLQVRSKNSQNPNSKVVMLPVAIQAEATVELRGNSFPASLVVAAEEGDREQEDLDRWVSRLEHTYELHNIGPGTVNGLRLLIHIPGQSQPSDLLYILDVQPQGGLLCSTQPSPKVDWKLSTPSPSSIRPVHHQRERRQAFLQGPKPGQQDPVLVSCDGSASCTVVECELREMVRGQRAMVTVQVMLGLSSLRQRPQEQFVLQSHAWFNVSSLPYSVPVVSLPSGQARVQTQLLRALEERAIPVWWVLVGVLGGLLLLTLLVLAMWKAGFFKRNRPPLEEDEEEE", "T1 sequence (O54890 26-787)": "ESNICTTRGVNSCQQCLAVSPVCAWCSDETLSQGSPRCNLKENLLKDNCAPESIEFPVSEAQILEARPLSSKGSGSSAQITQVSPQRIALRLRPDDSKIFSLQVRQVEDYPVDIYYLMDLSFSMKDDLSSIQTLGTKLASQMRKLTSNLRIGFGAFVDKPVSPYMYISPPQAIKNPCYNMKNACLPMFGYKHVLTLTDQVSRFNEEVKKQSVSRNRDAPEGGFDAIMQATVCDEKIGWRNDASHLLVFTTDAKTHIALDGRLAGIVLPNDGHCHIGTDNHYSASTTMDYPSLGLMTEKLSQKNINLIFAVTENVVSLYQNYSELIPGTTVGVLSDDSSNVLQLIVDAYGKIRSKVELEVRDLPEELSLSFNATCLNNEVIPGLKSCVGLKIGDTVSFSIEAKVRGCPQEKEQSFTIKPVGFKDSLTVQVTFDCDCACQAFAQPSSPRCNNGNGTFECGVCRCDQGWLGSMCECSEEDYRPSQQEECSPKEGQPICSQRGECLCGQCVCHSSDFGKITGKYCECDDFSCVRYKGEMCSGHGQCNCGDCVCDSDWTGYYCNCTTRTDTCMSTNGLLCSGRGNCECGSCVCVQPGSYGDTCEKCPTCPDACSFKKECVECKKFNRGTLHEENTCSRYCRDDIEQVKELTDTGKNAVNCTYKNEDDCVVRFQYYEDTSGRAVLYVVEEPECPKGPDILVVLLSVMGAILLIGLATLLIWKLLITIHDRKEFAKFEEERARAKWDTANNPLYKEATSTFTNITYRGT", "assay": "Phage binding in irradiated tumors with blocking antibody, plaque formation", "assay_type": "in vivo", "settings": "phage encoding the peptide on the capsid protein", "description": "An anti-α2bβ3 monoclonal antibody was administered by tail vein to determine whether this receptor is required for recombinant phage binding in irradiated tumors. Phage encoding […] (SEQ ID NO: 2) on the capsid protein were injected immediately after blocking antibody or control antibody. Phage were recovered from the tumor and controls organs and quantified by plaque formation. Radiation induced a 4-fold increase in phage binding in tumor. […] Thus, the tumor binding activity of targeting peptide […] (SEQ ID NO: 2) is dependent on its interaction with the α2bβ3 receptor."}, "[9]": {"system": "LLC tumors", "assay": "131I-labeled peptide binding in hind limb LLC tumors, well counts", "assay_type": "in vivo, mice", "description": "Recombinant peptide and ligand binding to the α2bβ3 integrin is dose dependent, with a threshold dose of 6 Gy and maximal binding at 10 Gy. This is the dose range for induction of apoptosis within tumor endothelium (Garcia-Barros & Kolesnick, 2003). […] To determine whether recombinant peptides bind within tumors following this combined therapy, the recombinant peptide […] (SEQ ID NO: 2) was employed. […] Tumors were resected and counts per minute (CPM) were measured by well counts."}, "[10]": {"settings": "Experiment A, number of sequenced phage after six rounds, 3 Gy"}}}
{"substance": "HVGGSSV (Peptide that binds to LLC and/or GL261 tumors) [peptide isolated by in vivo panning of a phage library]", "values": [{"measurement": "Tumor models within which the phage-encoded peptide bound", "setting": "[1]", "value": "bound within the melanoma, lung carcinoma, and glioma tumor models"}, {"measurement": "Time at which peptide was excreted by the kidneys", "setting": "[2]", "value": 40, "unit": "h"}, {"measurement": "Time over which peptide circulated throughout the mouse", "setting": "[2]", "value": 28, "unit": "h"}, {"measurement": "Time over which peptide remained bound to the tumor", "setting": "[2]", "value": 162, "unit": "h"}, {"measurement": "Labeled peptide binding in tumor", "setting": "[3]; Alexfluor 750 conjugate, tumor treated with SU11248 and radiation, 24 hours after drug", "value": "Intense peptide binding"}, {"measurement": "Uptake in tumors treated with SU11248 alone compared to untreated tumors", "setting": "[3]; responding versus non-responding tumors", "value": "differentially bound to tumors that responded to SU11248 therapy"}, {"measurement": "Labeled peptide binding in tumor", "setting": "[3]; tumors not responding to therapy, SU11248 alone", "value": "no increase in peptide binding"}, {"measurement": "Phage Recovered from LLC tumors", "setting": "[4]; [10]", "value": 7}, {"measurement": "Phage Recovered from LLC tumors (Frequency)", "setting": "[4]; Experiment A, six rounds, 3 Gy", "value": "(28%)"}, {"measurement": "Phage Recovered from GL261 tumors", "setting": "[5]", "value": 12}, {"measurement": "Phage Recovered from GL261 tumors (Frequency)", "setting": "[5]", "value": "(48%)"}, {"measurement": "Binding within the intravascular blood components", "setting": "[6]", "value": "minimal or no binding"}, {"measurement": "Site of peptide binding in tumor sections", "setting": "[6]; streptavidin histochemistry", "value": "bound primarily to tumor vascular endothelium"}, {"measurement": "Binding of Cy7-labeled phage peptide in treated tumor", "setting": "[7]; SU11248 and 3 Gy to right hind limb tumor", "value": "bound within the responding tumor"}, {"measurement": "Binding of Cy7-labeled phage peptide in tumors", "setting": "[7]; mouse treated with SU11248 40 mg/kg, one hind limb tumor 3 Gy 24 hours prior to imaging", "value": "observed in the responding tumor but not an non-responding tumor"}, {"measurement": "Phage binding in negative control tumor", "setting": "[7]; no SU11248 or radiation, 24 hours after tail vein injection", "value": "minimal phage binding"}]}
{"substance": "SLRGDGSSV (Peptide that binds to LLC and/or GL261 tumors) [peptide isolated by in vivo panning]", "values": [{"measurement": "Radiation-induced increase in phage binding in tumor", "setting": "[8]", "value": 4, "unit": "fold"}, {"measurement": "Tumor models within which the phage-encoded peptide bound", "setting": "[1]", "value": "bound within the melanoma, lung carcinoma, and glioma tumor models"}, {"measurement": "Radiolabeled peptide bound in tumors", "setting": "[9]; tumors treated with 2 Gy alone", "value": 10, "unit": "%"}, {"measurement": "Radiolabeled peptide bound in tumors", "setting": "[9]; tumors treated with 10 Gy", "value": 89, "unit": "%"}, {"measurement": "Radiolabeled peptide bound in tumors", "setting": "[9]; tumors treated with SU11248 alone", "value": 9, "unit": "%"}, {"measurement": "Radiolabeled peptide bound in tumors", "setting": "[9]; tumors treated with SU11248 and 2 Gy", "value": 91, "unit": "%"}, {"measurement": "Radiolabeled peptide bound in tumors", "setting": "[9]; untreated control tumors (tumors about 8% of body weight)", "value": 8, "unit": "%"}, {"measurement": "Phage Recovered from LLC tumors", "setting": "[4]; [10]", "value": 7}, {"measurement": "Phage Recovered from LLC tumors (Frequency)", "setting": "[4]; Experiment A, six rounds, 3 Gy", "value": "(28%)"}, {"measurement": "Phage Recovered from LLC tumors (Frequency)", "setting": "[4]; Experiment B", "value": "(14%)"}, {"measurement": "Phage Recovered from LLC tumors", "setting": "[4]; Experiment B, number of sequenced phage", "value": 2}, {"measurement": "Phage Recovered from GL261 tumors", "setting": "[5]", "value": 2}, {"measurement": "Phage Recovered from GL261 tumors (Frequency)", "setting": "[5]", "value": "(8%)"}]}
